Results from patent US20260042755A1, “GPR6 INVERSE AGONISTS” (MapLight Therapeutics, Inc., priority 2022, published 2026).
One block for each compound: values may come before it.

Experiments:
[1] = target: T1, GPR6 (Homo sapiens, UniProt P46095); assay: GPR6 antagonist functional cAMP assay (LANCE Ultra cAMP TR-FRET, CHO cells stably expressing GPR6); type: cell-based
T1 construct: expressed in transfected cells; host or cells: CHO cells
How it was run: (§1)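 cAMP quantified by TR-FRET immunoassay after 45 min compound treatment at 37° C of CHO cells stably expressing GPR3 or GPR6, in PDE-inhibitor (Ro 20-1724, 150 μM) buffer with 0.1% BSA. Data scaled between DMSO (0%) and reference compounds (100%); antagonist IC50 by 4-parameter logistic fit.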

[2] = target: T2, GPR3 (Homo sapiens, UniProt P46089); assay: GPR3 antagonist functional cAMP assay (LANCE Ultra cAMP TR-FRET, CHO cells stably expressing GPR3); type: cell-based
T2 construct: expressed in transfected cells; host or cells: CHO cells
How it was run: as §1

[3] = CHO cells stably expressing GPR6, cAMP assay
[4] = CHO cells stably expressing GPR3, cAMP assay
[5] = procedure as described in Example 24
[6] = CHO cells stably expressing GPR6, cAMP assay (Example 24)
[7] = CHO cells stably expressing GPR3, cAMP assay (Example 24)

T2 sequence (P46089 whole entry, species assumed): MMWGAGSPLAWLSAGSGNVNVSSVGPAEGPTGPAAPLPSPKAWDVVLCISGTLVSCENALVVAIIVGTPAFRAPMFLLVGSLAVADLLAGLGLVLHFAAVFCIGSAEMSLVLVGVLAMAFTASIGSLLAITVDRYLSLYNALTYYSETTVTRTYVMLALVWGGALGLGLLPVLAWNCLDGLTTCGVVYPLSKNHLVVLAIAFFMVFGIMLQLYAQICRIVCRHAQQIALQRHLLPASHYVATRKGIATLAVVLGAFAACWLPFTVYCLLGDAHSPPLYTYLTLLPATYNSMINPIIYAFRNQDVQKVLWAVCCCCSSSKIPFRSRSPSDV
T1 sequence (P46095 whole entry): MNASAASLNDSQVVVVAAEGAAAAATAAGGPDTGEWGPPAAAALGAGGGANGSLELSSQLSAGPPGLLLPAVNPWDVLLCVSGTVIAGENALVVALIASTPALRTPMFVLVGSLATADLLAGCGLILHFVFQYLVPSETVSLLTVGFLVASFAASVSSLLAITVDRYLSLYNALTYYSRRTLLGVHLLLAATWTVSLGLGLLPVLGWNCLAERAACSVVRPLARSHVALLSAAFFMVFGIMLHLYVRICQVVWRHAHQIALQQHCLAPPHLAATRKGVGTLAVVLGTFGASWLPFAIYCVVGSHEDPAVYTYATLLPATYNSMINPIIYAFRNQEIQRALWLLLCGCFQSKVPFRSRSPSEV

SMILES: Cn1cc(-c2nc3cnccc3nc2N2CC(Oc3ccc(F)cc3F)C2)cn1 [Compound 327, 4-{2-[3-(2,4-difluorophenoxy)azetidin-1-yl]pyrido[3,4-b]pyrazin-3-yl}-1-methyl-1H-pyrazole]
IC50 ([1]; procedure of Example 24): 1 to 30 µM | IC50 ([2]; procedure of Example 24): 1 to 30 µM

SMILES: CC(=O)N1CCc2nc(N3CCN(Cc4ccc(Cl)cc4F)CC3)c(-c3cnn(C)c3)nc2C1 [Compound 348, 1-(2-{4-[(4-chloro-2-fluorophenyl)methyl]piperazin-1-yl}-3-(1-methyl-1H-pyrazol-4-yl)-5H,6H,7H,8H-pyrido[3,4-b]pyrazin-6-yl)ethan-1-one]
IC50 ([1]; procedure of Example 24): 0.1 to 1 µM | IC50 ([2]; procedure of Example 24): 1 to 30 µM

SMILES: CC(=O)N1CCc2nc(N3CCC(Oc4ccc(F)cc4F)CC3)c(/C=C3/CCOC3)nc2C1 [Compound 494, 1-{2-[4-(2,4-difluorophenoxy)piperidin-1-yl]-3-{[(3Z)-oxolan-3-ylidene]methyl}-5H,6H,7H,8H-pyrido[3,4-b]pyrazin-6-yl}ethan-1-one]
IC50 [1, 3]: 0.1 to 1 µM | IC50 [2, 4]: 1 to 30 µM

SMILES: COCn1ccnc1-c1nc2ccncc2nc1N1CCN(Cc2ccc(F)cc2Cl)CC1 [Compound 28, 1-[(2-chloro-4-fluorophenyl)methyl]-4-{2-[1-(methoxymethyl)-1H-imidazol-2-yl]pyrido[3,4-b]pyrazin-3-yl}piperazine]
IC50 [1, 5]: ≥ 30 µM | IC50 [2, 5]: 0.1 to 1 µM

SMILES: N#Cc1ccc2nc(N3CCN(Cc4cc(Cl)ccc4Cl)CC3)c(-c3ncc[nH]3)nc2c1 [Compound 27, 2-{4-[(2,5-dichlorophenyl)methyl]piperazin-1-yl}-3-(1H-imidazol-2-yl)quinoxaline-6-carbonitrile]
IC50 [1, 5]: 1 to 30 µM | IC50 [2, 5]: 0.1 to 1 µM

SMILES: CC(=O)N1CCc2nc(N3CCN(Cc4c(F)ccc(F)c4F)CC3)c(-c3cnn(C)c3)nc2C1 [Compound 354, 1-[3-(1-methyl-1H-pyrazol-4-yl)-2-{4-[(2,3,6-trifluorophenyl)methyl]piperazin-1-yl}-5H,6H,7H,8H-pyrido[3,4-b]pyrazin-6-yl]ethan-1-one]
IC50 ([1]; procedure of Example 24): 1 to 30 µM | IC50 ([2]; procedure of Example 24): 1 to 30 µM

SMILES: CC(=O)N1CCc2nc(-c3cccc(=O)[nH]3)c(N3CCC(Oc4ccc(F)cc4F)CC3)nc2C1 [Compound 167, 6-{6-acetyl-3-[4-(2,4-difluorophenoxy)piperidin-1-yl]-5H,6H,7H,8H-pyrido[3,4-b]pyrazin-2-yl}-1,2-dihydropyridin-2-one]
IC50 [1, 6]: 1 to 30 µM | IC50 [2, 7]: 1 to 30 µM

SMILES: N#CCN1CCc2nc(N3CCC(Oc4ccc(F)cc4F)CC3)c(-c3cn[nH]c3)nc2C1 [Compound 119, 2-{2-[4-(2,4-difluorophenoxy)piperidin-1-yl]-3-(1H-pyrazol-4-yl)-5H,6H,7H,8H-pyrido[3,4-b]pyrazin-6-yl}acetonitrile]
IC50 [1, 6]: 0.1 to 1 µM | IC50 [2, 7]: 1 to 30 µM

SMILES: CC(=O)N1CCc2nc(N3CCC(Oc4ccc(F)cc4C)CC3)c(-c3cnn(C)c3)nc2C1 [Compound 432, 1-{2-[4-(4-fluoro-2-methylphenoxy)piperidin-1-yl]-3-(1-methyl-1H-pyrazol-4-yl)-5H,6H,7H,8H-pyrido[3,4-b]pyrazin-6-yl}ethan-1-one]
IC50 [1, 6]: 1 to 30 µM | IC50 [2, 7]: 1 to 30 µM

SMILES: CC(=O)N1CCc2nc(N3CCC(Oc4ccc(F)cc4F)CC3)c(-c3cccc(OC4CCC4)n3)nc2C1 [Compound 30, 1-[3-(6-cyclobutoxypyridin-2-yl)-2-[4-(2,4-difluorophenoxy)piperidin-1-yl]-5H,6H,7H,8H-pyrido[3,4-b]pyrazin-6-yl]ethan-1-one]
IC50 [1, 5]: 1 to 30 µM | IC50 [2, 5]: 1 to 30 µM

SMILES: CC(=O)N1CCc2nc(N3CCN(Cc4ccccc4Cl)CC3)c(-c3cnn(C)c3)nc2C1 [Compound 507, 1-(2-{4-[(o-chlorophenyl)methyl]-1-piperazinyl}-3-(1-methyl-4-pyrazolyl)-5,6,7,8-tetrahydro-1,4,6-triaza-6-naphthyl)-1-ethanone]
IC50 [1, 3]: 0.1 to 1 µM | IC50 [2, 4]: 1 to 30 µM

SMILES: CC(=O)N1CCc2nc(N3CCC(Oc4ccc(F)cc4F)CC3)c(-c3cccc(=O)n3C)nc2C1 [Compound 36, 6-{6-acetyl-2-[4-(2,4-difluorophenoxy)piperidin-1-yl]-5H,6H,7H,8H-pyrido[3,4-b]pyrazin-3-yl}-1-methyl-1,2-dihydropyridin-2-one]
IC50 [1, 5]: 1 to 30 µM | IC50 [2, 5]: 0.1 to 1 µM

SMILES: COC1CCC(c2nc3c(nc2N2CCC(Oc4ccc(F)cc4F)CC2)CCN(C(C)=O)C3)C1 (stereo not drawn) [Compound 279, 1-{2-[4-(2,4-difluorophenoxy)piperidin-1-yl]-3-(3-methoxycyclopentyl)-5H,6H,7H,8H-pyrido[3,4-b]pyrazin-6-yl}ethan-1-one]
IC50 ([1]; procedure of Example 24): 1 to 30 µM | IC50 ([2]; procedure of Example 24): 1 to 30 µM

SMILES: CC(=O)N1CCc2nc(N3CCC(Oc4ccc(F)cc4F)CC3)c(-c3cccc(OC4CCOC4)n3)nc2C1 (stereo not drawn) [Compound 61, 1-{2-[4-(2,4-difluorophenoxy)piperidin-1-yl]-3-[6-(oxolan-3-yloxy)pyridin-2-yl]-5H,6H,7H,8H-pyrido[3,4-b]pyrazin-6-yl}ethan-1-one]
IC50 [1, 6]: 1 to 30 µM | IC50 [2, 7]: 1 to 30 µM

SMILES: Cn1cc(-c2nc3cnc(C(O)C4CC4)cc3nc2N2CCC(Oc3ccc(F)cc3F)CC2)cn1 (stereo not drawn) [Compound 250, cyclopropyl(2-(4-(2,4-difluorophenoxy)piperidin-1-yl)-3-(1-methyl-1H-pyrazol-4-yl)pyrido[3,4-b]pyrazin-7-yl)methanol]
IC50 [1, 6]: 1 to 30 µM | IC50 [2, 7]: 1 to 30 µM

SMILES: CC(=O)N1CCc2nc(N3CCC(COc4cccc(F)c4)C3)c(-c3cnn(C)c3)nc2C1 (stereo not drawn) [Compound 324, 1-(2-{3-[(3-fluorophenoxy)methyl]pyrrolidin-1-yl}-3-(1-methyl-1H-pyrazol-4-yl)-5H,6H,7H,8H-pyrido[3,4-b]pyrazin-6-yl)ethan-1-one]
IC50 ([1]; procedure of Example 24): 1 to 30 µM | IC50 ([2]; procedure of Example 24): 1 to 30 µM

SMILES: CC(=O)N1CCc2nc(N3CCN(Cc4ccnn4C)CC3)c(-c3cnn(C)c3)nc2C1 [Compound 525, 1-[3-(1-methyl-4-pyrazolyl)-2-{4-[(1-methyl-5-pyrazolyl)methyl]-1-piperazinyl}-5,6,7,8-tetrahydro-1,4,6-triaza-6-naphthyl]-1-ethanone]
IC50 [1, 3]: ≥ 30 µM | IC50 [2, 4]: ≥ 30 µM

SMILES: CC(=O)N1CCc2nc(N3CCC(Oc4ccc(F)cc4F)CC3)c(-c3cnccn3)nc2C1 [Compound 19, 1-{2-[4-(2,4-difluorophenoxy)piperidin-1-yl]-3-(pyrazin-2-yl)-5H,6H,7H,8H-pyrido[3,4-b]pyrazin-6-yl}ethan-1-one]
IC50 [1, 5]: 1 to 30 µM | IC50 [2, 5]: 0.1 to 1 µM

SMILES: Cn1cc(-c2nc3cnc(C#N)cc3nc2N2CCN(Cc3ccc(F)cc3F)CC2)cn1 [Compound 216, 2-{4-[(2,4-difluorophenyl)methyl]piperazin-1-yl}-3-(1-methyl-1H-pyrazol-4-yl)pyrido[3,4-b]pyrazine-7-carbonitrile]
IC50 [1, 6]: 0.1 to 1 µM | IC50 [2, 7]: 1 to 30 µM

More lines, now with the values ahead:

IC50 ([1]; procedure of Example 24): 0.1 to 1 µM | IC50 ([2]; procedure of Example 24): 1 to 30 µM
SMILES: CC(C)(O)C(=O)c1cc2nc(N3CCC(Oc4ccc(F)cc4F)CC3)c(-c3cnn(C(F)F)c3)nc2cn1 [Compound 616, 1-{3-[1-(difluoromethyl)-4-pyrazolyl]-2-[4-(2,4-difluorophenoxy)-1-piperidyl]-1,4,6-triaza-7-naphthyl}-2-hydroxy-2-methyl-1-propanone]

IC50 ([1]; procedure of Example 24): < 0.1 µM | IC50 ([2]; procedure of Example 24): 1 to 30 µM
SMILES: COC[C@H](O)c1cc2nc(N3CCC(Oc4ccc(F)cc4F)CC3)c(-c3cnn(C)c3)nc2cn1 (single isomer, unassigned) [Compound 643]

IC50 [1, 3]: 0.1 to 1 µM | IC50 [2, 4]: 1 to 30 µM
SMILES: CC(C)(O)C(=O)c1cc2nc(N3CCN(Cc4ccc(F)cc4F)CC3)c(-c3cnn(C(F)F)c3)nc2cn1 [Compound 566, 1-{3-[1-(difluoromethyl)-4-pyrazolyl]-2-{4-[(2,4-difluorophenyl)methyl]-1-piperazinyl}-1,4,6-triaza-7-naphthyl}-2-hydroxy-2-methyl-1-propanone]

IC50 ([1]; procedure of Example 24): < 0.1 µM | IC50 ([2]; procedure of Example 24): 0.1 to 1 µM
SMILES: CC(C)(O)[C@H](O)c1cc2nc(N3CCC(Cc4ccc(F)cc4F)CC3)c(-c3cnn(CF)c3)nc2cn1 (single isomer, unassigned) [Compound 728]

IC50 ([1]; procedure of Example 24): < 0.1 µM | IC50 ([2]; procedure of Example 24): 0.1 to 1 µM
SMILES: Cn1cc(-c2nc3cc([C@@H](O)C(C)(C)O)ncc3nc2N2CCC(=Cc3ccc(F)cc3F)CC2)cn1 (single isomer, unassigned) [Compound 763]

IC50 ([1]; procedure of Example 24): 0.1 to 1 µM | IC50 ([2]; procedure of Example 24): 1 to 30 µM
SMILES: CC(C)(O)C(C)(O)c1cc2nc(N3CCC(Oc4ccc(F)cc4F)CC3)c(-c3cnn(C(F)F)c3)nc2cn1 (stereo not drawn) [Compound 635, 2-{3-[1-(difluoromethyl)-4-pyrazolyl]-2-[4-(2,4-difluorophenoxy)-1-piperidyl]-1,4,6-triaza-7-naphthyl}-3-methyl-2,3-butanediol]

IC50 ([1]; procedure of Example 24): 0.1 to 1 µM | IC50 ([2]; procedure of Example 24): 1 to 30 µM
SMILES: CC(C)(O)[C@](C)(O)c1cc2nc(-c3cnn(CF)c3)c(N3CCN(Cc4ccc(F)cc4F)CC3)nc2cn1 (single isomer, unassigned) [Compound 712]

IC50 [1, 3]: 0.1 to 1 µM | IC50 [2, 4]: 1 to 30 µM
SMILES: Cn1cc(-c2nc3cnc(C(C)(O)CO)cc3nc2N2CCC(Oc3ccc(F)cc3F)CC2)cn1 (stereo not drawn) [Compound 556, 2-{2-[4-(2,4-difluorophenoxy)-1-piperidyl]-3-(1-methyl-4-pyrazolyl)-1,4,6-triaza-7-naphthyl}-1,2-propanediol]

IC50 ([1]; procedure of Example 24): 0.1 to 1 µM | IC50 ([2]; procedure of Example 24): 1 to 30 µM
SMILES: CC(C)(O)[C@@H](O)c1cc2nc(N3CCN(Cc4ccccc4F)CC3)c(-c3cnn(C(F)F)c3)nc2cn1 (single isomer, unassigned) [Compound 613]

IC50 ([1]; procedure of Example 24): 0.1 to 1 µM | IC50 ([2]; procedure of Example 24): 1 to 30 µM
SMILES: CC(C)(O)[C@](C)(O)c1cc2nc(-c3cnn(C(F)F)c3)c(N3CCN(Cc4cc(F)ccc4F)CC3)nc2cn1 (single isomer, unassigned) [Compound 795]

IC50 ([1]; procedure of Example 24): 0.1 to 1 µM | IC50 ([2]; procedure of Example 24): 1 to 30 µM
SMILES: CCn1cc(-c2nc3cnc([C@@](C)(O)C(C)(C)O)cc3nc2N2CCC(Oc3ccc(F)cc3F)CC2)cn1 (single isomer, unassigned) [Compound 736]
